# Assay results as given in patent US20200216492A1, “USE OF C-TERMINALLY EXTENDED PEPTIDES TO DISRUPT INHIBITOR NK CELL RECEPTOR INTERACTIONS WITH MHC I” (La Jolla Institute for Allergy and Immunology, priority 2016, published 2020).
# “Also recorded” adds a separate entry of the source.
# What was measured:
# HLA-C*03:07 = HLA-C*03:07 (Homo sapiens, UniProt P10321, A176E/A330V/A97T/C25G/C350S/D114A/D33Y/E197K/L119I/L127V/L171W/L218V/M285V/M309V/M331V/N104K/P208H/Q277E/Q291P/R243W/R45H/S101N/S123Y/S140Y/S297R/S48A/T118I/T187L/T329A/T363A/V319A); assay: Refolding of HLA-C*03:07 with peptides (SEC, SDS-PAGE, MALDI-TOF); assay type: binding; conditions: gel filtration
# Description: Note that A280 scale is different between the three panels.
# Core peptides were chosen that have been crystallized in complex with HLA-B as well as HLA-C and designed variants containing C-terminal extensions (Table 3). […] HLA-C can be optimized while producing more HLA-B complexes for crystallization and structure determination using established methods. Crystallization is not major problem, since only HLA I-peptide complexes are crystallized and not ternary complexes containing a receptor. For HLA-A2*02:01, all 9 complexes were successfully crystallized thereby establishing a routine procedure. Structure determination is performed using molecular replacement (MR), using available reference structures.
# HLA-A*02:01 = molecular target: T1, HLA-A*02:01 (Homo sapiens, UniProt P04439, D140Y/D185E/D98H/E176V/E277Q/G131W/G231S/I119V/I121R/I166T/I218V/L300P/L318F/N151K/N90K/P208A/P217A/Q86G/Q94H/R138H/R169H/T345S); assay: Thermal denaturation assay (differential scanning fluorimetry) of HLA-A*02:01-β2m-peptide complexes; assay type: binding; conditions: for relative stability of HLA-peptide complex: thermal denaturation
# T1 construct: HLA-A*02:01 class I heavy chain ectodomain (residues 21-274); made in house
# Procedure: HLA-A*02:01-β2m-peptide complexes with the various different peptides were analyzed for thermal denaturation by differential scanning fluorimetry using a LightCycler 480 (Roche). HLA-A*02:01-β2m-peptide complexes with different peptides at 100 μM in reaction buffer (20 mM Tris-HCl pH 7.5, 150 mM NaCl) were used as stock solutions. Each reaction mixture constituted of 1-2 μl protein complex stock solution, 2l of SYPRO Orange dye (100×, Invitrogen) made up to 20 μl in reaction buffer in a 96-well white plate compatible with the instrument. A temperature gradient from 20° C.-85° C. at steps of 0.06° C./sec and 10 acquisitions/° C. was used for the experiment. Each experiment with individual protein-peptide complex was repeated thrice. A melt curve of the total fluorescence of the run was plotted against temperature. The minima of the first derivative of the melt curve from raw fluorescence data (temperature differential of absolute fluorescence versus temperature) provided the meting temperature (Tm) for individual HLA-A*02:01-β2m peptide complexes (inflection point of the melt curve).
# To determine the relative stability of the individual HLA-A*02:01-peptide complexes the inventors followed their thermal denaturation by differential scanning fluorimetry. The melting temperatures (Tm) obtained from the melt curves allowed the inventors to compare the stability of the different complexes (FIG. 3).
# HLA-A*02:01 mutants = assay: Refolding of HLA-A*02:01 position 80 mutants with extending peptides (SEC); assay type: binding; conditions: increase in incorrectly folded heavy chain as indicator, preliminary data
# Procedure: Refolding efficiency is judged by comparing peak high (at 45 kDa) with that of the preceding oligomeric peak.
# It is possible that replacing T80 with amino acids Ile, Lys, and Asn as found in other common alleles may affect refolding. […] Whether a flexible F pocket in HLA-C*03:07 can be created was tested by exchange against the amino acids from HLA-A*02:01, either Thr80 or the combination of Thr80 and Thr142 together. Other amino acids at position 80 or mutate other alleles at position 80 and 142 were introduced as necessary.
# KIR2DL1-Fc = KIR2DL1-Fc binding to immobilized HLA-peptide complexes by BLI (Octet RED96); conditions: 2 μM KIR2DL1-Fc, biotinylated complex on SA sensor tip
# Description: Binding to buffer only was used for background subtraction.
# Synthetic DNA constructs of KIR3DL1 (HLA-B*57:01) and KIR2DL1 (HLA-C*04:01) are cloned and expressed as Fc-fusion constructs in SF9 insect cells. HLA-B*57:01 and […] are refolded with both core and extending peptides and captured on a Strepavidin sensor chip for SPR analysis or a SA sensor tip for BLI analysis as for HLA-A*02:01. […] KIRDL-Fc fusion proteins are, therefore, used to measure the binding affinity, since their bivalency will increase overall binding affinity. […] Further, KIRDL-Fc fusion proteins are immobilized using an anti-human Fc antibody capture chip (GE Healthcare) and the binding of HLA-tetramers to the immobilized KIRDL receptors measured. This increases affinity even further (tetra-valency versus bivalency). […] The C-terminally extended peptides all disrupt KIR2DL1 binding, regardless of whether they induce the “lysine lift” or the “tyrosine swing” (FIG. 19). […] This is proof of concept that structural alterations around the F pocket of HLA alleles that form the primary binding site for KIRL abrogate receptor binding.
# [1] = system: KIR3DL1 expressing YTS cells; assay: HLA-B*57:01/peptide tetramer staining of KIR3DL1 transfected YTS cells (flow cytometry); assay type: cell-based; conditions: KIR3DL1 positive and negative YTS cells; 10, 50 and 100 μg/ml tetramer; 30 min on ice; preliminary study
# Procedure: KIR3DL1 negative (top) and positive (bottom) YTS cells were analyzed for their staining using the indicated HLA-B/peptide tetramer. Binding of the tetramer to KIR3DL1 negative cells likely indicates binding of the tetramer to another receptor, such as 2B4 and, therefore, different KIR transfected cells, such as K562 cells will be used next.
# In parallel, whether the HLA-tetramers can stain K562 cells that have been transfected with the corresponding allele-matched KIRDL receptor is tested. Without being limited to any particular theory, it is expected that HLA tetramers presenting the core peptide will stain K562 cells, while staining with tetramers presenting the C-terminally extended peptides is greatly impaired and will overlap with the isotype control. Appropriate anti KIR antibodies are used as positive control (Anti-KIR3DL1 clone DX9 and anti-KIR2DL1 clone HP-MA4 from Biolegend). […]
# [2] = system: HLA-B*58:02 transfected 721.221 cells; assay: Cytotoxicity assay using KIR3DL1 transfected YTS cells and peptide-pulsed 721.221 target cells; assay type: cell-based; conditions: peptide 100 μM; KIR3DL1 YTS effectors; E:T 10:1; 2-4 hrs; preliminary study
# Procedure: The ability of KIR3DL1 or KIR2DL1 transfected YTS cells to kill HLA expressing 721.221 target cells is tested. Since YTS cells are devoid of any inhibitory KIR, expression of a single KIR will tolerize YTS cells against the 721.221 target cell expressing the allele-matched HLA-B*58:02 (instead of HLA-B*57:01 used for SPR and crystallography) or HLA-C*04:01. HLA-B*58:02 is identical in sequence in the binding region for KIR3DL1 and reported to bind KIR3DL1 allele. 721.221/HLA-C*04:01 cells expressing a TAP inhibitor as well as the corresponding KIR2DL1 YTS transfectants have been obtained. In these 721.221 cells, peptides have to be loaded on the empty HLA-C on the cell surface. The advantage of this system is that the degree of inhibition can be titrated using different concentration of peptides. Target cell killing is assessed using a europium-based fluorescence killing assay as described (67). In this setup, the antibody IPH2101 serves as a positive control for killing, and the efficacy of extending peptides to induce killing is compared. IPH2101 is expressed, for which the sequence is available (Patent application: PCT/US2013/063068), similar to Fc fusion proteins in insect cells. […]
# Cytotoxicity assay using KIR transfected YTS cells (FIG. 21) has been established. […] Finally, fluorescence was measured in a Perkin Elmer EnVision™ time-resolved fluorometer. […]
# Sequence of KIR2DL1-Fc (P43626 22-245 limits assumed): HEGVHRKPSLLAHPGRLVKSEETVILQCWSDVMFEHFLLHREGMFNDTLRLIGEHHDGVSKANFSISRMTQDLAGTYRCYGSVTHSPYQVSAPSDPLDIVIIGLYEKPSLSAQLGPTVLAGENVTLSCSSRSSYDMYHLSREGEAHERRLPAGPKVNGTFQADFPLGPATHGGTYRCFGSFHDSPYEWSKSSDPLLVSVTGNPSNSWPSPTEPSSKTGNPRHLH
sequence,measurement,setting,value
"GAVDPLLAL [G9L, reference compound]",refolding of HLA-C*03:07 with peptide,HLA-C*03:07,protein complex of proper size was observed
GAVDPLLALD [G10D],refolding of HLA-C*03:07 with peptide,HLA-C*03:07,protein complex of proper size was observed
GLKEGIPAL,melting temperature (Tm) of HLA-A*02:01-peptide complex,"HLA-A*02:01; differential scanning fluorimetry, SYPRO Orange, 20-85 °C",63 °C
same,relative stability of HLA-peptide complex,HLA-A*02:01,less stable complex as compared to peptide GLLPELPAV; also recorded: as stable as those with longer peptides
"GLKEGIPALDN [G11N, T. gondii C-terminally extending peptide]",refolding efficiency of HLA-A*02:01 position 80 mutants with peptide (order of residues),HLA-A*02:01 mutants,Ile80 (HLA-B)>Thr80 (HLA-A)>Lys80 (HLA-C*04:01)>Asn80 (HLA-C*03:07)
GLLPELPAVGGNE,relative stability of HLA-peptide complex,HLA-A*02:01,as stable as
"LSSPVTKSF [L9F, core self-peptide for HLA-B*57:01, reference compound]",KIR2DL1-Fc binding to allele-mismatched HLA-B*57:01-peptide complex,KIR2DL1-Fc,does not bind
same,binding of Alexa Fluor-647 HLA-B*57:01/peptide tetramer to YTS cells,[1],"bound to YTS cells, regardless whether KIR3DL1 was expressed or not"
LSSPVTKSFDGK [L12K],induction of YTS NK cell killing of target cells,[2],induce YTS NK cell killing; also recorded: appears to induce killing
same,binding of Alexa Fluor-647 HLA-B*57:01/peptide tetramer to YTS cells,[1],"bound to YTS cells, regardless whether KIR3DL1 was expressed or not"
LSSPVTKSFK [L10K],induction of YTS NK cell killing of target cells,[2],does not induce any killing
"YFDPANGKF [Y9F, reference compound]",KIR2DL1-Fc binding to HLA-C*04:01-peptide complex,KIR2DL1-Fc,strong binding signal
YFDPANGKFDN [Y11N],KIR2DL1-Fc binding to HLA-C*04:01-peptide complex,KIR2DL1-Fc,abrogated
YFDPANGKFK [Y10K],KIR2DL1-Fc binding to HLA-C*04:01-peptide complex,KIR2DL1-Fc,abrogated
YLSPIASPLLDGKSLR [T. gondii C-terminally extending peptide],difference in Tm between complex with extended peptide and with nested peptide,HLA-A*02:01; extended versus equivalent nested peptide,about 7 °C
